ChEMBL document CHEMBL5291721, “A preclinical secondary pharmacology resource illuminates target-adverse drug reaction associations of marketed drugs” (Nat Commun, 2023)

Tests used:
Motilin receptor = Motilin receptor (Homo sapiens, UniProt O43193)
[1] = molecular target: T1, Muscarinic acetylcholine receptor M2 (Homo sapiens, UniProt P08172); assay type: functional, cell-based
T1 sequence (P08172 whole entry): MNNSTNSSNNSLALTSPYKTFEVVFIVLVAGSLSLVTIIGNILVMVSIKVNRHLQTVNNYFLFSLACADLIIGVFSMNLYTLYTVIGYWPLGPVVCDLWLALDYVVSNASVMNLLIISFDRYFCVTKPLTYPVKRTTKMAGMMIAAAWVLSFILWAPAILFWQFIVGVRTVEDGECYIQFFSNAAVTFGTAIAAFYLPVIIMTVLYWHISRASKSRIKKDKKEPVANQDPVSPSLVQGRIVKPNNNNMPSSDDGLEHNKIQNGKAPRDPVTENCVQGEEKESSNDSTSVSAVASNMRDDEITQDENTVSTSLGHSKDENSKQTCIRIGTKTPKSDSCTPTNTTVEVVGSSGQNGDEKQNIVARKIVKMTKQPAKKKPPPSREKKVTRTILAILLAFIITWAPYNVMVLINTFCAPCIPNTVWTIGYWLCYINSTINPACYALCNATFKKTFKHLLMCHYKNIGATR

[2] = molecular target: T2, Prostaglandin G/H synthase 1 (Rattus norvegicus, UniProt Q63921); assay type: functional
T2 sequence (Q63921 whole entry): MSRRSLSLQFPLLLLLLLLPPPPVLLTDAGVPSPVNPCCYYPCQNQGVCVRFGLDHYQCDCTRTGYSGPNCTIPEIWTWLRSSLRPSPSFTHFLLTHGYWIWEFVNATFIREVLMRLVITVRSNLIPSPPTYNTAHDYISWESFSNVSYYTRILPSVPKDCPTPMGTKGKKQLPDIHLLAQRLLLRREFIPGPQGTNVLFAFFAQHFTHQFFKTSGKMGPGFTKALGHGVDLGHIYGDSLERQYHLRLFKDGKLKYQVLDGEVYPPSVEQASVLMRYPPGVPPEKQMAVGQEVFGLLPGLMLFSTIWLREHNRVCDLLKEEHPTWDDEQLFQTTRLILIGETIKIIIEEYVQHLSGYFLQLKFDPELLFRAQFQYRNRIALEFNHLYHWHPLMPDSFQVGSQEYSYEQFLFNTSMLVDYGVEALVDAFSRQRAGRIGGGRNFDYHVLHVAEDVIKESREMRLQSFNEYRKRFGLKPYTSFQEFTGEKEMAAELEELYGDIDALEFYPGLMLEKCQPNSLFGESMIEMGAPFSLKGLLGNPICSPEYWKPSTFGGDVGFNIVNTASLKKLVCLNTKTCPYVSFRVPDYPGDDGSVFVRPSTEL

[3] = molecular target: T3, 5-hydroxytryptamine receptor 1A (Homo sapiens, UniProt P08908); assay type: functional, cell-based
T3 sequence (P08908 whole entry): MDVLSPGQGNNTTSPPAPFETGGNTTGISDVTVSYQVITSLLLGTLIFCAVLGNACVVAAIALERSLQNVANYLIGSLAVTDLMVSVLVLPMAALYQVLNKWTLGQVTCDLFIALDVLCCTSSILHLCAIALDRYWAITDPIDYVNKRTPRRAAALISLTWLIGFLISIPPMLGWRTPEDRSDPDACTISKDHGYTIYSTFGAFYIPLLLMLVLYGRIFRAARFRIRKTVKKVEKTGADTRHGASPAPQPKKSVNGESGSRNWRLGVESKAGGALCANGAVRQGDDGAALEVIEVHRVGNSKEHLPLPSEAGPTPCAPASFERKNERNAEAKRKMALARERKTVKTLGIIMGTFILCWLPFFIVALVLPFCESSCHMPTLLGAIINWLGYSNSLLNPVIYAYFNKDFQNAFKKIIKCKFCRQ

[4] = molecular target: Neuronal acetylcholine receptor subunit alpha-4 (Homo sapiens, UniProt P43681)
Chain of Neuronal acetylcholine receptor subunit alpha-4 (P43681 whole entry): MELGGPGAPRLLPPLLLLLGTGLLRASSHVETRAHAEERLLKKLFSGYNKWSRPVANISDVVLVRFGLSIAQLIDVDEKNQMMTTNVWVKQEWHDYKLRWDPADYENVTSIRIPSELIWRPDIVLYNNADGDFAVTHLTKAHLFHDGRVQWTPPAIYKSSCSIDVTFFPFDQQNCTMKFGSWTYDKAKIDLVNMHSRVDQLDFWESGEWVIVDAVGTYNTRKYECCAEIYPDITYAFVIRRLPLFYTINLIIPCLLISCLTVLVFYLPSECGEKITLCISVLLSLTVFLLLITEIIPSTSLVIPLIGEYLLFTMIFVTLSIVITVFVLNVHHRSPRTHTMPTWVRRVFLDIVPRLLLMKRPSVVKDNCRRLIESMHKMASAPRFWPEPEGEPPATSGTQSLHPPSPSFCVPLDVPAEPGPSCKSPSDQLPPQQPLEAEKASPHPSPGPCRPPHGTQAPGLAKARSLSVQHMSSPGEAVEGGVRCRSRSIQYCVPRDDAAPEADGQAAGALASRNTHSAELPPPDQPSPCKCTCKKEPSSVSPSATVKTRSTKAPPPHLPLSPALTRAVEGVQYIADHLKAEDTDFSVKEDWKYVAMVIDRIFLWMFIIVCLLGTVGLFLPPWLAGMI

[5] = molecular target: T4, Gastrin/cholecystokinin type B receptor (Homo sapiens, UniProt P32239)
T4 sequence (P32239 whole entry): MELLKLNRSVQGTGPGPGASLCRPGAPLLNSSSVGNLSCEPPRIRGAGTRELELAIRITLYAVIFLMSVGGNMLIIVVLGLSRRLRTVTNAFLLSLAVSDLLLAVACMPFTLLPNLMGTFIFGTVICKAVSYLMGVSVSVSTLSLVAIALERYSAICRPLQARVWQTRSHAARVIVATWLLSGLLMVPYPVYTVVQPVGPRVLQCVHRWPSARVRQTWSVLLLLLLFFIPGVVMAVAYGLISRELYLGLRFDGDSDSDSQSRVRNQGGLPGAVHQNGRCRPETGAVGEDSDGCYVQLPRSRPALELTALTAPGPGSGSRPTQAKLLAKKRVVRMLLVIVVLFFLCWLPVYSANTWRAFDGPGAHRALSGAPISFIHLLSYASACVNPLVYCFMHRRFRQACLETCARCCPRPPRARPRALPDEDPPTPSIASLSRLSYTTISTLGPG

B2 bradykinin receptor = molecular target: T5, B2 bradykinin receptor (Homo sapiens, UniProt P30411)
T5 sequence (P30411 whole entry): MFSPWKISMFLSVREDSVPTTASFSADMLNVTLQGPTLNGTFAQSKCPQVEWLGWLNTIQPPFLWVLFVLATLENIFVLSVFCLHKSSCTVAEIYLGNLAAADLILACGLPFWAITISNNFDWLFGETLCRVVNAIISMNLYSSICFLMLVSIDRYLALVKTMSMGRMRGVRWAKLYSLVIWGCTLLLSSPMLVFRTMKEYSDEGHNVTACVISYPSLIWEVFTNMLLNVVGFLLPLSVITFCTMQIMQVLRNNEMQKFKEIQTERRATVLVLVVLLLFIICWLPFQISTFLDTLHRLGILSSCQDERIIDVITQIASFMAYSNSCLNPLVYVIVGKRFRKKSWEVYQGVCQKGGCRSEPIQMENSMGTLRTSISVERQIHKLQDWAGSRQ

D(3) dopamine receptor = D(3) dopamine receptor (Homo sapiens, UniProt P35462)
Chain of D(3) dopamine receptor (P35462 whole entry): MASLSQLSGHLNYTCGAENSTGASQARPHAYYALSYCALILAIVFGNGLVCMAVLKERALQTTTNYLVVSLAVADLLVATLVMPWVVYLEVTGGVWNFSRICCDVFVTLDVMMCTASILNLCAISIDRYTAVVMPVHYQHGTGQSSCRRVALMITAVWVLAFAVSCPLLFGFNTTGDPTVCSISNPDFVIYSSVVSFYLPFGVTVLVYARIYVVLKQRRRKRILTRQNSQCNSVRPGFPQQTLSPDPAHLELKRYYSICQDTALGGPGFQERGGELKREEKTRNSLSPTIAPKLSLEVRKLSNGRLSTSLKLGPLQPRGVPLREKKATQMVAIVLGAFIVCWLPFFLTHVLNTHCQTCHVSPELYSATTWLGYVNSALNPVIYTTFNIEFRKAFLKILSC
Note: assay procedure not described here.

Chain of Motilin receptor (O43193 whole entry): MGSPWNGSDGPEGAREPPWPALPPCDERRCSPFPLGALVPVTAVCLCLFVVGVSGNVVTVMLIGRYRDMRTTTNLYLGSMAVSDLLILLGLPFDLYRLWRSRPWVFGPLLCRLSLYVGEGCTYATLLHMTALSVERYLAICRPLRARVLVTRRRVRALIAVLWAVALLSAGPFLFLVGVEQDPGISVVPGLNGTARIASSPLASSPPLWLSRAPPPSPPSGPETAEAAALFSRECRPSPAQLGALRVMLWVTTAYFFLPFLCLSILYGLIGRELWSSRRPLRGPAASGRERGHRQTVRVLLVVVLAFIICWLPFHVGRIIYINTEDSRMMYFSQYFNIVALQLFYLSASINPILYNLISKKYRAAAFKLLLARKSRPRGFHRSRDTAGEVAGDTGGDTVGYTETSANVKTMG

Structure (SMILES)	AC50 (Motilin receptor)	AC50 [1]	AC50 [2]	AC50 [3]	AC50 [4]	AC50 [5]	AC50 (B2 bradykinin receptor)	AC50 (D(3) dopamine receptor)
Oc1cc(O)c(Cl)cn1	> 30 µM	> 30 µM	> 30 µM	> 30 µM	> 30 µM	> 30 µM	> 30 µM	> 30 µM
CC(C)N(CCCCOCC(=O)O)c1cnc(-c2ccccc2)c(-c2ccccc2)n1	> 30 µM	> 30 µM	> 30 µM	> 30 µM	> 30 µM	> 3 µM	> 10 µM	> 30 µM
C[N+]12CCC(CC1)C(OC(=O)C(O)(c1ccccc1)c1ccccc1)C2 (stereo not drawn)	> 30 µM	> 30 µM	> 30 µM	> 30 µM	> 30 µM	> 30 µM	> 30 µM	> 30 µM
Cc1cc(=O)n(-c2ccccc2)n1C [ANTIPYRINE]	> 10 µM	> 10 µM	> 30 µM	> 30 µM	> 10 µM	> 30 µM	> 30 µM	> 10 µM
O=C(O)CCNC(=O)c1ccc(/N=N/c2ccc(O)c(C(=O)O)c2)cc1 [BALSALAZIDE]	> 30 µM	> 30 µM	> 30 µM	> 30 µM	> 30 µM	> 30 µM	> 30 µM	> 30 µM

The remaining lines, values ahead:

AC50 (Motilin receptor)	AC50 [1]	AC50 [2]	AC50 [3]	AC50 [4]	AC50 [5]	AC50 (B2 bradykinin receptor)	AC50 (D(3) dopamine receptor)	Structure (SMILES)
> 30 µM	> 30 µM	> 30 µM	> 30 µM	> 30 µM	> 30 µM	> 30 µM	0.041 µM	O=C(CCCN1CCC(O)(c2ccc(Br)cc2)CC1)c1ccc(F)cc1 [BROMPERIDOL]
> 30 µM	> 30 µM	14 µM	> 30 µM	> 30 µM	> 30 µM	> 30 µM	> 30 µM	Clc1ccc(CCC(Cn2ccnc2)Sc2c(Cl)cccc2Cl)cc1 (stereo not drawn) [BUTOCONAZOLE]
> 30 µM	> 30 µM	> 30 µM	> 30 µM	> 30 µM	> 30 µM	> 30 µM	> 30 µM	CO/N=C(\C(=O)N[C@@H]1C(=O)N2C(C(=O)O)=C(CSc3nc(=O)c(=O)[nH]n3C)CS[C@H]12)c1csc(N)n1 [CEFTRIAXONE]
1.8 µM	> 10 µM	> 30 µM	> 10 µM	> 10 µM	> 30 µM	> 30 µM	6.3 µM	COc1cc(N)c(Cl)cc1C(=O)NC1CCN(CCCOc2ccc(F)cc2)CC1OC (stereo not drawn) [CISAPRIDE]
> 10 µM	> 10 µM	> 30 µM	> 10 µM	> 10 µM	> 30 µM	> 30 µM	> 30 µM	CC(CN(C)C)C(C)(O)Cc1ccc(Cl)cc1 (stereo not drawn) [CLOBUTINOL]
> 10 µM	> 10 µM	> 30 µM	> 10 µM	> 10 µM	> 30 µM	> 30 µM	> 30 µM	CCOC(=O)C(C)(C)Oc1ccc(Cl)cc1 [CLOFIBRATE]
